From patent publication US20100120762A1, “Triazine derivatives as inhibitors of phosphodiesterases” (WYETH, priority 2008, published 2010)

Experiments:
PDE2A (NM002599) = biological target: T1, PDE2A (NM002599) (Homo sapiens, UniProt O00408); assay: Inhibition of recombinant PDE2A (expressed in baculovirus/SF21-cells); format: biochemical; settings: recombinant PDE2A, 0.5 μM [3H]-cAMP, 1000 nM cGMP, 37° C., 30 minutes, SPA; read-out: PDE2A IC50
T1 construct: made in house; host or cells: baculovirus / SF21 insect cells
T1 sequence (O00408 whole entry): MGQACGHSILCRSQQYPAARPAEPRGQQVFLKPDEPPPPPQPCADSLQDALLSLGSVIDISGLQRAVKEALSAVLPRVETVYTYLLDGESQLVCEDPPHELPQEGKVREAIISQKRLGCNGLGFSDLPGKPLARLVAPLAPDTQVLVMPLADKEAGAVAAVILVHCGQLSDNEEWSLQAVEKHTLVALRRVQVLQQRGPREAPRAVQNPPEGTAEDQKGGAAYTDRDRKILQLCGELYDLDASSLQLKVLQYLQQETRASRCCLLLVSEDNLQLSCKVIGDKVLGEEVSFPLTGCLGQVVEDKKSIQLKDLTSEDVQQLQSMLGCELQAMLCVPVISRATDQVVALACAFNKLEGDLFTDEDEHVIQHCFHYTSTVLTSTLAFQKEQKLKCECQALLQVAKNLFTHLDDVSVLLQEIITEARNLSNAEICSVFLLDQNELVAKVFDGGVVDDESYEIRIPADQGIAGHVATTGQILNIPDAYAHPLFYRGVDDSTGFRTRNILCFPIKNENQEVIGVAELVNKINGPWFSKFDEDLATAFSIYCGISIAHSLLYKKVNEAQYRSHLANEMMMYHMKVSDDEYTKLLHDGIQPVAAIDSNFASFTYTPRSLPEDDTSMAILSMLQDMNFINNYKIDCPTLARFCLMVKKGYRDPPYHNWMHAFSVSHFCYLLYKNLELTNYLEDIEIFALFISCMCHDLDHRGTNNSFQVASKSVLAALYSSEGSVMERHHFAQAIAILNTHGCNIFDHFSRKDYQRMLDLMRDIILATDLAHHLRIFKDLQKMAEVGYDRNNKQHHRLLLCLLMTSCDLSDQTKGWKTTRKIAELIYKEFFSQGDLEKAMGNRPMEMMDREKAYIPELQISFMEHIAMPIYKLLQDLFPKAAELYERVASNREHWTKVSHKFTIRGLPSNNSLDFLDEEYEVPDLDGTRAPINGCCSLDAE
Outline: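 Human PDE2A membrane fraction from baculovirus-infected SF21 cells; 0.5 μM [3H]-cAMP with 1000 nM cGMP as activator in 50 mM Tris-HCl/5 mM MgCl2 pH 7.4, 30 min at 37° C, SPA read-out. Non-specific activity measured without cGMP; IC50 by 2-parameter Hill fit.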

PDE10A1 (AB 020593) = biological target: T2, PDE10A1 (AB 020593) (Homo sapiens, UniProt Q9Y233); assay: Inhibition of recombinant PDE10A (baculovirus/SF21 system); format: biochemical; settings: recombinant cytosolic PDE10A, 0.1 μM [3H]-cAMP, 37° C., 30 minutes, SPA; read-out: PDE10A IC50
T2 construct: made in house; host or cells: baculovirus / SF21 insect cells (gene synthesized by Entelechon GmbH)
T2 sequence (Q9Y233 other isoform, or with tags, fused parts or gaps): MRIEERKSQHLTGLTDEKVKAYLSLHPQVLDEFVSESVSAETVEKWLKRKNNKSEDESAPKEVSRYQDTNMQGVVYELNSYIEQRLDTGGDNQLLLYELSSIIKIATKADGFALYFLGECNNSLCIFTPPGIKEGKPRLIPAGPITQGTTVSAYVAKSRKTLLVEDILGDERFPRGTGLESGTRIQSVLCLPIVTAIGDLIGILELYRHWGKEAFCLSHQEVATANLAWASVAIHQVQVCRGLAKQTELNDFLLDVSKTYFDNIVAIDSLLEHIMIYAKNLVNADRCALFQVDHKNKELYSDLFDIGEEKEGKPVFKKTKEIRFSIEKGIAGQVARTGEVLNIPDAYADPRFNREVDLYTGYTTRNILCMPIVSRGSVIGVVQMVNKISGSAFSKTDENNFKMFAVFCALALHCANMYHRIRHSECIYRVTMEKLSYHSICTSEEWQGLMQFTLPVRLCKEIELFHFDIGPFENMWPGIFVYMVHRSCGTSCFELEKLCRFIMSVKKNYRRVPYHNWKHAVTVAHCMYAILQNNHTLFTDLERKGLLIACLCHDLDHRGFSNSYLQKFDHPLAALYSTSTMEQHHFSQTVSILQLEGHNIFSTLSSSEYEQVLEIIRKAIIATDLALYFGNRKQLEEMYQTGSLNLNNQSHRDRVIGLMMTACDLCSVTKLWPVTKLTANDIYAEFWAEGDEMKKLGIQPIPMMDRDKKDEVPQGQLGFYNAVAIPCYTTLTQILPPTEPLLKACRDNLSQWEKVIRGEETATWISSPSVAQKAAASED
Outline: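 Cytosolic PDE10A1 expressed in SF21 cells via baculovirus, incubated with 0.1 μM [3H]-cAMP in 50 mM Tris-HCl/5 mM MgCl2, pH 7.4, 30 min at 37 °C. SPA-bead scintillation read-out, with enzyme-free wells as background. IC50 from Hill plot, 2-parameter model.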

Row | Compound | IC50 (PDE2A (NM002599)) [nM] | IC50 (PDE10A1 (AB 020593)) [nM] | melting point [°C]
1 | COc1ccc2nnc3c(C)nc(-c4ccccc4)n3c2n1 [Example 4, 8-methoxy-3-methyl-1-phenyl-imidazo[5,1-c]-pyrido[2,3-e][1,2,4]triazine] | 89.3 | 131 | 214 to 217
2 | Cc1nc(-c2ccccc2Cl)n2c1nnc1ccc(N3CCOCC3)nc12 [Example 123, 1-(2-Chloro-phenyl)-3-methyl-8-morpholin-4-yl-imidazo[5,1-c]pyrido[2,3-e][1,2,4]triazine] | 5.13 | 15.7 | 251 to 254
3 | Cc1nc(-c2cc(Cl)ccc2Cl)n2c1nnc1ccc(Cl)nc12 [Example 118, 8-chloro-1-(2,5-dichloro-phenyl)-3-methyl-imidazo[5,1-c]pyrido[2,3-e][1,2,4]triazine] | 11.8 | 228 | 151 to 154
4 | COc1ccc2nnc3c(C)ncn3c2n1 [Example 5, 8-methoxy-3-methyl-imidazo[5,1-c]-pyrido[2,3-e][1,2,4]triazine] | > 10000 | > 1000 | 213 to 214
5 | COc1ccc2nnc3c(-c4ccccc4)ncn3c2n1 [Example 124, 8-Methoxy-3-phenyl-imidazo[5,1-c]pyrido[2,3-e][1,2,4]triazine] | > 500 | > 500 | 225 to 227
6 | COc1ccc2nnc3c(C)nc(-c4cnc(F)c(C)c4)n3c2n1 [Example 67, 9-(6-fluoro-5-methylpyridin-3-yl)-2-methoxy-7-methylimidazo[5,1-c]pyrido[2,3-e][1,2,4]triazine] | 55.6 | 226 | –
7 | COc1ccc2nnc3c(C)nc(-c4ccc(F)nc4C)n3c2n1 [Example 66, 9-(6-fluoro-2-methylpyridin-3-yl)-2-methoxy-7-methylimidazo[5,1-c]pyrido[2,3-e][1,2,4]triazine] | 49 | 225 | –
8 | COc1ccnc2c1nnc1c(C)nc(-c3ccncc3C)n12 [Example 114, 4-methoxy-7-methyl-9-(3-methylpyridin-4-yl)imidazo[5,1-c]pyrido[2,3-e][1,2,4]triazine] | 2060 | 10.1 | –
9 | COc1ccc2nnc3c(C)nc(-c4cccc(OC)c4Cl)n3c2n1 [Example 39, 9-(2-chloro-3-methoxyphenyl)-2-methoxy-7-methylimidazo[5,1-c]pyrido[2,3-e][1,2,4]triazine] | 111 | 115 | –
10 | COc1cccc(-c2nc(C)c3nnc4ccc(OC)nc4n23)c1 [Example 58, 2-methoxy-9-(3-methoxyphenyl)-7-methylimidazo[5,1-c]pyrido[2,3-e][1,2,4]triazine] | 14.7 | 37.7 | –
11 | COc1ccc(Cl)c(-c2nc(C)c3nnc4ccc(OC)nc4n23)c1 [Example 59, 9-(2-chloro-5-methoxyphenyl)-2-methoxy-7-methylimidazo[5,1-c]pyrido[2,3-e][1,2,4]triazine] | 2.2 | 40.9 | –
12 | COc1ccc2nnc3c(C)nc(-c4cccc(C(C)C)c4)n3c2n1 [Example 15, 2-methoxy-7-methyl-9-[3-(1-methylethyl)phenyl]imidazo[5,1-c]pyrido[2,3-e][1,2,4]triazine] | 374 | > 1000 | –
13 | 8-Methoxy-3-methyl-1-(2-methyl-2H-pyrazol-3-yl)-imidazo[5,1-c]pyrido[2,3-e][1,2,4]triazine [Example 108] | 286 | 773 | –
14 | 1-(2-Fluoro-5-trifluoromethyl-phenyl)-8-methoxy-3-methyl-imidazo[5,1-c]pyrido[2,3-e][1,2,4]triazine [Example 110] | 52.2 | 341 | –
15 | COc1ccc2nnc3c(C)nc(-c4cc(C)ccc4Cl)n3c2n1 [Example 71, 9-(2-chloro-5-methylphenyl)-2-methoxy-7-methylimidazo[5,1-c]pyrido[2,3-e][1,2,4]triazine] | 4.37 | 37.9 | –
16 | CCOc1cc(F)cc(-c2nc(C)c3nnc4ccc(OC)nc4n23)c1 [Example 29, 9-(3-ethoxy-5-fluorophenyl)-2-methoxy-7-methylimidazo[5,1-c]pyrido[2,3-e][1,2,4]triazine] | 380 | 341 | –
17 | COc1ccc2nnc3c(C)nc(-c4cc(C(F)(F)F)ccc4Cl)n3c2n1 [Example 72, 9-(2-chloro-5-(trifluoromethyl)phenyl)-2-methoxy-7-methylimidazo[5,1-c]pyrido[2,3-e][1,2,4]triazine] | 24.9 | 282 | –
18 | COc1cc(-c2nc(C)c3nnc4ccc(OC)nc4n23)cc(C(F)(F)F)c1 [Example 31, 2-methoxy-9-[3-methoxy-5-(trifluoromethyl)phenyl]-7-methylimidazo[5,1-c]pyrido[2,3-e][1,2,4]triazine] | > 1000 | > 1000 | –
19 | 1-(2-Ethoxy-5-methyl-phenyl)-8-methoxy-3-methyl-imidazo[5,1-c]pyrido[2,3-e][1,2,4]triazine [Example 104] | 162 | 871 | –

Results, then the compound that gave them:

Row | IC50 (PDE2A (NM002599)) [nM] | IC50 (PDE10A1 (AB 020593)) [nM] | melting point [°C] | Compound
20 | > 1000 | > 1000 | 225 to 227 | c1ccc(-c2ncn3c2nnc2cccnc23)cc1 [Example 125, 3-phenyl-imidazo[5,1-c]pyrido[2,3-e][1,2,4]triazine]
21 | 2980 | 2890 | 159 to 162 | COc1ccc2nnc3cnc(C(C)C)n3c2n1 [Example 7, 1-isopropyl-8-methoxy-imidazo[5,1-c]-pyrido[2,3-e][1,2,4]triazine]
22 | 136 | 94.8 | 157 to 159 | CCC(C)c1nc(C)c2nnc3ccc(OC)nc3n12 (stereo not shown) [Example 12, 8-methoxy-3-methyl-1-(sec-butyl)-imidazo[5,1-c]-pyrido[2,3-e][1,2,4]triazine]
23 | 477 | 348 | – | COc1ccc2nnc3c(C)nc(-c4ccncc4)n3c2n1 [Example 44, 2-methoxy-7-methyl-9-pyridin-4-ylimidazo[5,1-c]pyrido[2,3-e][1,2,4]triazine]
24 | 639 | 233 | – | COc1ccc2nnc3c(C)nc(-c4ccc(Cl)c(C(N)=O)c4)n3c2n1 [Example 83, 2-chloro-5-(2-methoxy-7-methylimidazo[5,1-c]pyrido[2,3-e][1,2,4]triazin-9-yl)benzamide]
25 | 51.2 | 43.6 | – | COc1ccc2nnc3c(C)nc(-c4cscc4C)n3c2n1 [Example 77, 2-methoxy-7-methyl-9-(4-methylthiophen-3-yl)imidazo[5,1-c]pyrido[2,3-e][1,2,4]triazine]
26 | 17.2 | 11.8 | – | COc1ccc2nnc3c(C)nc(-c4cccc(F)c4Cl)n3c2n1 [Example 91, 9-(2-chloro-3-fluorophenyl)-2-methoxy-7-methylimidazo[5,1-c]pyrido[2,3-e][1,2,4]triazine]
27 | 196 | 391 | – | CCOc1ncccc1-c1nc(C)c2nnc3ccc(OC)nc3n12 [Example 14, 9-(2-ethoxypyridin-3-yl)-2-methoxy-7-methylimidazo[5,1-c]pyrido[2,3-e][1,2,4]triazine]
28 | 61.7 | 817 | – | COc1ccc2nnc3c(C)nc(-c4ccccc4Oc4ccccc4)n3c2n1 [Example 105, 8-Methoxy-3-methyl-1-(2-phenoxy-phenyl)-imidazo[5,1-c]pyrido[2,3-e][1,2,4]triazine]
